Experimental data: US9216222B2 (priority 2013, dated 2015)

Legend:
methemoglobin (metHb) [1] = settings: in vivo; cited from earlier work
methemoglobin (metHb) [2] = tested on: methemoglobin (metHb); set-up: species or system rats; settings: rat, in vivo

SMILES: CCCCCO[N+](=O)[O-] [amyl nitrate]
- maximum metHb levels (methemoglobin (metHb) [1]): 3.45-7.0%

SMILES: CC(C)CCON=O [Isoamyl Nitrite, 3-methylbutyl nitrite]
- metHb levels achieved (can reach) (methemoglobin (metHb) [2]): ≥ 20.0%
